Measured values from patent publication US10844058B2, “Valbenazine salts and polymorphs thereof” (Neurocrine Biosciences, Inc., priority 2015, dated 2020).
Where a name gives a salt, the structure may show the parent alone. Read-outs that look alike come from different tables or passages of the source. Blank lines part the entries; values can stand above or below the compound they belong to.

Experiments:
Type in all cases: physicochemical
[1] = Gravimetric vapour sorption (GVS); conditions: for Stability to humidity GVS uptake: 25° C.; for XRPD pattern following the adsorption/desorption analysis: after GVS
Procedure: The Gravimetric sorption isotherms were obtained using a Hiden IGASorp moisture sorption analyser, controlled by CFRSorp software. The sample temperature was maintained at 25° C. by a Huber re-circulating water bath. The humidity was controlled by mixing streams of dry and wet nitrogen, with a total flow rate of 250 ml/min. The relative humidity (RH) was measured by a calibrated Vaisala RH probe (dynamic range of 0-95% RH), located near the sample. The weight change, (mass relaxation) of the sample as a function of % RH was constantly monitored by the microbalance (accuracy 0.001 mg). Typically 10-20 mg of sample was placed in a tared mesh stainless steel basket at room temperature. The sample was loaded and unloaded at 40% RH and 25° C. (typical room conditions). The standard isotherm was performed at 25° C. at 10% RH intervals over a 0-90% RH range.

[2] = Stability to humidity on storage (form by XRPD)
[3] = Thermodynamic aqueous solubility; conditions: for solubility at 24 h: water, 25 °C, thermodynamic from solid
Procedure: The suspension was equilibrated at 25° C. for 24 hours then the pH was measured. The suspension was then filtered through a glass fibre C filter. […] Different volumes of the standard, diluted and undiluted sample solutions were injected.

[4] = Form conversion on heating (VT-XRPD)
Excerpt: It is not clear whether a form change accompanies this loss of water, as the water is readily taken back up when the sample is returned to ambient RH.

[5] = Phase equilibration between Form I and IV of Formula I (Example 13)
Procedure: The suspensions of Form and IV from the equilibration studies were taken to 25° C.

[6] = Phase equilibration between Form I, II and IV of Formula I (Example 12); conditions: slurried 13 days
Procedure: About 10 mg of the mixture was then slurried in 200 μl of pre-saturated solvent at the desired temperatures for 13 days. The solids were then quickly filtered and analyzed by XRPD.

[7] = relative humidity from about 0% to about 90%
[8] = relative humidity from about 0% to about 95%, di(4-methylbenzenesulfonate)

Form conversion upon exposure to gravimetric vapour sorption analysis [1]: converts to Form V
XRPD pattern following the adsorption/desorption analysis ([1]; di(4-methylbenzenesulfonate)): substantially changed
GVS mass lost ([1]; relative humidity decreased between about 15% and 0% RH): 2.0%
GVS mass lost ([1]; relative humidity decreased between about 90% and 15% RH): 1.2%
GVS mass increase [1, 7]: about 3.1%
GVS mass increase ([1]; relative humidity from about 40% to about 80%): about 0.5%
GVS mass increase ([1]; relative humidity from about 80% to about 90%): about 3.1%
Structure (SMILES): COc1cc2c(cc1OC)[C@H]1C[C@@H](OC(=O)[C@@H](N)C(C)C)[C@H](CC(C)C)CN1CC2.Cc1ccc(S(=O)(=O)O)cc1.Cc1ccc(S(=O)(=O)O)cc1 [Form VI, (S)-(2R,3R,11bR)-3-isobutyl-9,10-dimethoxy-2,3,4,6,7,11b-hexahydro-1H-pyrido[2,1-a]isoquinolin-2-yl 2-amino-3-methylbutanoate di(4-methylbenzenesulfonate)]

XRPD pattern following the adsorption/desorption analysis ([1]; di(4-methylbenzenesulfonate)): substantially unchanged
GVS mass lost ([1]; relative humidity decreased between about 20 and 0% RH): 1.2%
GVS mass increase ([1]; relative humidity from about 10% to about 95%): about 1%
Form conversion upon heating ([4]; heating between about 110° C. and about 140° C.): converts to Form VI
Structure (SMILES): COc1cc2c(cc1OC)[C@H]1C[C@@H](OC(=O)[C@@H](N)C(C)C)[C@H](CC(C)C)CN1CC2.Cc1ccc(S(=O)(=O)O)cc1.Cc1ccc(S(=O)(=O)O)cc1 [Form V, (S)-(2R,3R,11bR)-3-isobutyl-9,10-dimethoxy-2,3,4,6,7,11b-hexahydro-1H-pyrido[2,1-a]isoquinolin-2-yl 2-amino-3-methylbutanoate di(4-methylbenzenesulfonate)]

Stability to humidity GVS uptake [1]: >3.9%
Structure (SMILES): Br [hydrobromide]

Stability with respect to humidity ([1]; GVS): stable with respect to humidity
XRPD pattern following the adsorption/desorption analysis ([1]; di(4-methylbenzenesulfonate)): substantially unchanged
GVS mass lost ([1]; relative humidity decreased between about 40 and 0% RH): 1.8%
GVS mass increase [1, 8]: about 3.4%
GVS mass increase ([1]; relative humidity from about 40% to about 95%): about 1.6%
Form conversion in suspension ([5]; 25° C., overnight stirring): did not convert
Form conversion in suspension ([5]; heated to 30° C. for 2 days): conversion to Form I was then complete
Form conversion upon re-slurry ([5]; re-slurry at room temperature in acetonitrile): converts to Form I
Form conversion upon heating ([4]; heating at about 230° C.): converts to Form I
Structure (SMILES): COc1cc2c(cc1OC)[C@H]1C[C@@H](OC(=O)[C@@H](N)C(C)C)[C@H](CC(C)C)CN1CC2.Cc1ccc(S(=O)(=O)O)cc1.Cc1ccc(S(=O)(=O)O)cc1 [Form IV, (S)-(2R,3R,11bR)-3-isobutyl-9,10-dimethoxy-2,3,4,6,7,11b-hexahydro-1H-pyrido[2,1-a]isoquinolin-2-yl 2-amino-3-methylbutanoate di(4-methylbenzenesulfonate)]

solubility at 24 h ([3]; pH 5.1, water, at pH 5.1, read-out: aqueous solubility): ~18.5 mg/mL
Hygroscopicity ([1]; GVS): substantially non-hygroscopic
Stability with respect to humidity ([1]; GVS): stable with respect to humidity
XRPD pattern following the adsorption/desorption analysis ([1]; di(4-methylbenzenesulfonate)): substantially unchanged
GVS mass increase [1, 8]: about 0.5%
Structure (SMILES): COc1cc2c(cc1OC)[C@H]1C[C@@H](OC(=O)[C@@H](N)C(C)C)[C@H](CC(C)C)CN1CC2.Cc1ccc(S(=O)(=O)O)cc1.Cc1ccc(S(=O)(=O)O)cc1 [Form II, (S)-(2R,3R,11bR)-3-isobutyl-9,10-dimethoxy-2,3,4,6,7,11b-hexahydro-1H-pyrido[2,1-a]isoquinolin-2-yl 2-amino-3-methylbutanoate di(4-methylbenzenesulfonate)]

Continued, compound first:

Structure (SMILES): COc1cc2c(cc1OC)C1CC(OC(=O)C(N)C(C)C)C(CC(C)C)CN1CC2.O=C(O)C(=O)O.O=C(O)C(=O)O (stereo not drawn) [oxalate]
Stability to humidity GVS uptake [1]: 0.8%
Stability to humidity 25° C./92% RH ([2]; 25° C./92% RH): unchanged
Stability to humidity 40° C./75% RH ([2]; 40° C./75% RH): unchanged

Structure (SMILES): COc1cc2c(cc1OC)[C@H]1C[C@@H](OC(=O)[C@@H](N)C(C)C)[C@H](CC(C)C)CN1CC2 [Form II of Formula II, (S)-(2R,3R,11bR)-3-isobutyl-9,10-dimethoxy-2,3,4,6,7,11b-hexahydro-1H-pyrido[2,1-a]isoquinolin-2-yl 2-amino-3-methylbutanoate dihydrochloride]
Aqueous solubility ([3]; at pH 4.1, dihydrochloride): > 67 mg/mL free form equivalent
GVS mass loss ([1]; RH lowered to 0%): ca. 12%
Form conversion on heating (VT-XRPD) ([4]; heating): no conversion to Form I on heating
Temperature at which the material becomes amorphous (VT-XRPD) ([4]; no subsequent crystallization upon cooling): above 160 °C

Structure (SMILES): COc1cc2c(cc1OC)[C@H]1C[C@@H](OC(=O)[C@@H](N)C(C)C)[C@H](CC(C)C)CN1CC2 [Form I of Formula II, (S)-(2R,3R,11bR)-3-isobutyl-9,10-dimethoxy-2,3,4,6,7,11b-hexahydro-1H-pyrido[2,1-a]isoquinolin-2-yl 2-amino-3-methylbutanoate dihydrochloride]
solubility at 24 h ([3]; pH 4.1, water, at pH 4.1, read-out: Aqueous solubility): > 90 mg/mL
solubility at 24 h ([3]; 25° C., 24 hours, at the pH of the next column, read-out: Aqueous solubility mg/mL free form): > 90 mg/mL
Stability to humidity GVS uptake [1]: 15.2%
XRPD pattern following the adsorption/desorption analysis ([1]; dihydrochloride): substantially changed
GVS mass increase [1, 7]: about 14%
Form after storage ([2]; 25° C./92% RH for seven days): change of form
Form after storage ([2]; 40° C./75% RH for seven days): change of form

Structure (SMILES): COc1cc2c(cc1OC)C1CC(OC(=O)C(N)C(C)C)C(CC(C)C)CN1CC2.Cc1ccc(S(=O)(=O)O)cc1.Cc1ccc(S(=O)(=O)O)cc1 (stereo not drawn) [Form I, II, and IV]
Form found by XRPD after equilibration ([6]; Acetonitrile/2% water, 25° C.): Form I
Form found by XRPD after equilibration ([6]; Acetonitrile/2% water, 50° C.): Form I
Form found by XRPD after equilibration ([6]; Acetonitrile/5% water, 5° C.): Form IV
Form found by XRPD after equilibration ([6]; Acetonitrile/5% water, 25° C.): Form I
Form found by XRPD after equilibration ([6]; Acetonitrile/5% water, 50° C.): Form I
Form found by XRPD after equilibration ([6]; Acetonitrile/10% water, 5° C.): Form IV
Form found by XRPD after equilibration ([6]; Acetonitrile/10% water, 25° C.): Form I
Form found by XRPD after equilibration ([6]; Acetonitrile/10% water, 50° C.): Form I
Form found by XRPD after equilibration ([6]; Acetonitrile, 5° C.): Form I
Form found by XRPD after equilibration ([6]; Acetonitrile, 25° C.): Form I
Form found by XRPD after equilibration ([6]; Acetonitrile, 50° C.): Form I
